Data from ChEMBL document CHEMBL5500330, “Novel thiazolidin-4-one benzenesulfonamide hybrids as PPARγ agonists: Design, synthesis and in vivo anti-diabetic evaluation” (Eur J Med Chem, 2024).
pEC50: −log10 of the molar value.

What was measured:
[1] = biological target: T1, Peroxisome proliferator-activated receptor delta (Homo sapiens, UniProt Q03181); assay: Agonist activity at human PPAR delta by luciferase reporter gene assay
T1 sequence (Q03181 whole entry): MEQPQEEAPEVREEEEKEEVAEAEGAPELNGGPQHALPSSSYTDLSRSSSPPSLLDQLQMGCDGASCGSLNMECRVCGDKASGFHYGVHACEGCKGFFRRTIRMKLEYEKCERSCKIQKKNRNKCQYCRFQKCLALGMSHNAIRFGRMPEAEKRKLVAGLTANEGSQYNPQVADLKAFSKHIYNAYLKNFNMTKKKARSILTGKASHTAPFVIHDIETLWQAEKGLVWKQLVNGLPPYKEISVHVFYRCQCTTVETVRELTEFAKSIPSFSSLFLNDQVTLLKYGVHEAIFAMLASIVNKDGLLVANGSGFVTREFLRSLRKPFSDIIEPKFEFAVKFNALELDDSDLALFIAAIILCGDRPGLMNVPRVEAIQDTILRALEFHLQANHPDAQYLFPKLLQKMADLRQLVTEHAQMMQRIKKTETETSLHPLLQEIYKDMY

[2] = Acute toxicity in male Albino mouse assessed as mortality at upto 2000 mg/kg, po measured upto 7 days; assay type: organism-based; conditions: in vivo, 168 h, time < 7 day
[3] = biological target: T2, Peroxisome proliferator-activated receptor gamma (Homo sapiens, UniProt P37231); assay: Agonist activity at human PPAR gamma by luciferase reporter gene assay
T2 sequence (P37231 whole entry): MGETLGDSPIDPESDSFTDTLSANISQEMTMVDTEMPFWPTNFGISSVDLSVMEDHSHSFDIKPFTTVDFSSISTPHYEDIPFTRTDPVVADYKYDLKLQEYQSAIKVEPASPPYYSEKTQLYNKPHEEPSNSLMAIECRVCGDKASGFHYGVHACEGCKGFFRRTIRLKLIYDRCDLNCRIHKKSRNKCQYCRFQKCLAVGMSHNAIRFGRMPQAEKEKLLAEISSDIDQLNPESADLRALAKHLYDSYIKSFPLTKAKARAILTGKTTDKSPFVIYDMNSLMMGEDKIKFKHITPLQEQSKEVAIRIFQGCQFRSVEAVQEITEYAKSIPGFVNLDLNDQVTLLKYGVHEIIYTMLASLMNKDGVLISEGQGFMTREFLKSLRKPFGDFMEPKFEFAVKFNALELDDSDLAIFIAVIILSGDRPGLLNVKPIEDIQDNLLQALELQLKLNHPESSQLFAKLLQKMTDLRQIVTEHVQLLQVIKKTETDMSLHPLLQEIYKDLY

[4] = biological target: T3, Peroxisome proliferator-activated receptor alpha (Homo sapiens, UniProt Q07869); assay: Agonist activity at human PPAR alpha by luciferase reporter gene assay
T3 sequence (Q07869 whole entry): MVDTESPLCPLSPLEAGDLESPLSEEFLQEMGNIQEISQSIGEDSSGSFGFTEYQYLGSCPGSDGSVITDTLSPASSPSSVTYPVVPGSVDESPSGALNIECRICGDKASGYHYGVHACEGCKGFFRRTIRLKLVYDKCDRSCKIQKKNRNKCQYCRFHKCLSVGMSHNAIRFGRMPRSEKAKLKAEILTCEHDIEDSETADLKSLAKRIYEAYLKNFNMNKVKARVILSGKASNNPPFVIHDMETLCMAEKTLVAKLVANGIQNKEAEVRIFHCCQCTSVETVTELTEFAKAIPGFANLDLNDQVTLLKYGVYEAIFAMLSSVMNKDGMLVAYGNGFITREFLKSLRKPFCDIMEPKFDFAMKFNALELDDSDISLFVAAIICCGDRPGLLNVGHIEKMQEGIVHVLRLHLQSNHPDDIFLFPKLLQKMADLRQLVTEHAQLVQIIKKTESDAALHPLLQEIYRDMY

[5] = system: Rattus norvegicus; assay: Antidiabetic activity against STZ induced Albino Wistar rat diabetic model assessed as hypoglycaemic effect at 36 mg/kg, po administered as single dose and measured after 15 days; assay type: functional; conditions: time 15 day
[6] = system: Rattus norvegicus; assay: Antidiabetic activity against NA-STZ induced Wistar rat model of type 2 diabetes assessed as increase in C-peptide level at 36 mg/kg, po measured after 21 days by ELISA method relative to control; assay type: functional; conditions: time 21 day
[7] = system: Rattus norvegicus; assay: Antidiabetic activity against NA-STZ induced Wistar rat model of type 2 diabetes assessed as decrease in blood glucose level at 36 mg/kg, po measured after 21 days relative to control; assay type: functional; parameters: scale not given: the % may be the effect or the level left; conditions: time 21 day

Row | SMILES | pEC50 [1] | Activity [2] | pEC50 [3] | pEC50 [4] | Activity [5] | Activity [6] | Activity [7]
1 | COc1cc(/C=C2\SC(Nc3ccc(S(N)(=O)=O)cc3)=NC2=O)ccc1OCCc1ccccc1 | 4.79 | Toxic | 4.95 | – | – | – | –
2 | COc1cc(/C=C2\SC(Nc3ccc(S(N)(=O)=O)cc3)=NC2=O)ccc1OCc1ccc(C)cc1 | 4.32 | Toxic | – | 4.39 | – | – | –
3 | COc1cccc(COc2cc(/C=C3\SC(Nc4ccc(S(N)(=O)=O)cc4)=NC3=O)ccc2OC)c1 | – | Non-Toxic | 5.53 | 4.64 | – | – | –
4 | COc1cccc(COc2ccc(/C=C3\SC(Nc4ccc(S(N)(=O)=O)cc4)=NC3=O)cc2OC)c1 | 4.81 | Non-Toxic | 5.40 | – | – | – | –
5 | NS(=O)(=O)c1ccc(NC2=NC(=O)/C(=C/c3ccc(OCc4ccc(Cl)cc4)cc3)S2)cc1 | 4.45 | Toxic | – | – | – | – | –
6 | NS(=O)(=O)c1ccc(-n2cc(/C=C3\SC(=O)NC3=O)c(-c3ccc4ccccc4c3)n2)cc1 | – | – | – | – | 134.1 mg/dL | – | –
7 | CC(C)(Oc1ccc(CCNC(=O)c2ccc(Cl)cc2)cc1)C(=O)O [BEZAFIBRATE] | 4.59 | – | 4.08 | – | – | – | –
8 | CCc1ccc(CCOc2ccc(CC3SC(=O)NC3=O)cc2)nc1 (stereo not given) [PIOGLITAZONE] | – | – | – | – | 132.2 mg/dL | 38.6% | 35%
